This note sets out measurements from patent US20190175526A1, “METHODS FOR TREATING CANCER” (Macau University of Science and Technology, priority 2017, published 2019).

One assay has as its system A549 cells. Put plainly: MTT cell viability assay, A549 cells. Format: cell-based. Conditions: Homo sapiens, cell line A459 (A549), 72 hours. Here is the method: (§1) Cell lines A549 and H460 were purchased from ATCC and cultivated in RPMI 1640 medium supplemented with 10% FBS (Gibco, Big Cabin, Okla., Me., USA), 1% penicillin-streptomycin solution and maintained at 37° C. in a CO2 incubator with 5% CO2. Compound 3039-0164 was dissolved in DMSO and stored at −40° C. Cells were seeded on a 96-well microplate with 3,000 cells/well, cultured overnight for cell adhesion, and treated with DMSO or various concentrations of compound 3039-0164 for 72 hours. Then, each well was added with 10 μL MTT (5 mg/mL) and incubated for 4 hours at […], followed by adding 100 μL acidic isopropanol (10% SDS and 0.01 mol/L HCl). Finally, an absorbance at 570 nm was measured by a microplate reader (Tecan, Morrisville, N.C., USA). Cell viability was calculated relative to untreated controls, with results based on at least three independent experiments. Two human non-small cell lung cancer (NSCLC) cell lines, A549 and H460, were treated with an increasing concentration (0, 2.5, 5.0, 7.5 and 10.0 μM) of compound 3039-0164 for 72 hours, and then cell viability was determined by MTT assay. As shown in FIG. 2a and FIG. 2b, the cell viability of A549 and H460 were both decreased by compound 3039-0164 in a dose-dependent manner.
A general note: Tetrazolium assays rely on reduction of a dye to a coloured formazan, in cell work by metabolically active cells.

Another assay concerns H460 cells. Description: MTT cell viability assay, H460 cells. Conditions: Homo sapiens, NCI-H460, cell line H460, 72 hours. Type of assay: cell-based. Here is the method:
as §1

A further assay concerns the target PRMT5 (Homo sapiens, UniProt O14744). Description: PRMT5 enzymatic assay (AlphaLISA). Type of assay: biochemical. To be noted: 60 minutes at room temperature, read-out: IC50, PRMT5 enzyme activity. The procedure: PRMT5 enzymatic assay was carried out by Shanghai ChemPartner Co. (998 Halei Road, Pudong New Area, Shanghai, 201203, China). To measure IC50 values, 10 concentrations of compound 3039-0164 were tested. PRMT5 was purchased from BPS bioscience (Cat. No. 51045), and SAM/SAH were purchased from Sigma. Inc (Cat. No. A7007-100MG and No. A9384-25MG). Compound 3039-0164 was prepared as 10 mM stock in DMSO and diluted to final concentration in DMSO. PRMT5 and substrates were incubated with indicated concentrations of compounds in a 384-well plate for 60 minutes at room temperature. Then, acceptor and donor solutions were added to label the residual substrates of PRMT5. The labeling process lasted for 60 minutes at room temperature, followed by reading endpoint with EnSpire Plate Reader with Alpha mode (PerkinElmer). To investigate the influence of compound 3039-0164 on enzymatic activity and its “on-target” effect, AlphaLISA assay was carried out.
For orientation: In Alpha technology, singlet oxygen from a donor bead excites a nearby acceptor bead.

Structures are written as SMILES.

Chain of PRMT5 (O14744 2-637 limits assumed): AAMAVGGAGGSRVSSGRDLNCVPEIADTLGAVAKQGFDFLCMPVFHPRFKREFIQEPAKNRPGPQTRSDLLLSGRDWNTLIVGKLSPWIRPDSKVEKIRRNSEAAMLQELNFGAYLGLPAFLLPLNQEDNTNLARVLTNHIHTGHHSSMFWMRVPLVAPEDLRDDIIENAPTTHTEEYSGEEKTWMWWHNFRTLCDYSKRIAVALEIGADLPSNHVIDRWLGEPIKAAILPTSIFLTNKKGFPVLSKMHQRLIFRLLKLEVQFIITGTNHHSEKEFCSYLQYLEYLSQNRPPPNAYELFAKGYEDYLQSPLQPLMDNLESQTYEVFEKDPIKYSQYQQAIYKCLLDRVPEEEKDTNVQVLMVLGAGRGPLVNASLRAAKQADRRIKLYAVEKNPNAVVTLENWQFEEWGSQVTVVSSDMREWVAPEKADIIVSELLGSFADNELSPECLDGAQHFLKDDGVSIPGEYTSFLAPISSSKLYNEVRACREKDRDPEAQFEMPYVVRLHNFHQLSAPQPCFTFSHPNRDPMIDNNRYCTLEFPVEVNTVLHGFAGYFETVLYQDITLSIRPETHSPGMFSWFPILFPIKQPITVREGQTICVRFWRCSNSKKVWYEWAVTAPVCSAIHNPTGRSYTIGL
Chain of PRMT5 (Q9BQA1 2-342 partner limits assumed): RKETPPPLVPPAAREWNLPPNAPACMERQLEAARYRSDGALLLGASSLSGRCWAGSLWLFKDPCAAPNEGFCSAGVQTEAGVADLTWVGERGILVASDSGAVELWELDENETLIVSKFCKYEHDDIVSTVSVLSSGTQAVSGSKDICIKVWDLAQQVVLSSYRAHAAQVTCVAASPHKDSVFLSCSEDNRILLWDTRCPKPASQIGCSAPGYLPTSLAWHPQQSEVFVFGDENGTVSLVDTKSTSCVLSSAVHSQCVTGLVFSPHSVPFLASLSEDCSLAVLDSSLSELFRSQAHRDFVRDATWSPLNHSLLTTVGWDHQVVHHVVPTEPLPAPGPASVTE

In the case of `O=C1c2ccccc2C(=O)c2c(NCCCN(CCO)CCO)cccc21` [compound 3039-0164], the 50% inhibitory concentration (IC50) came out at 7.79 ± 1.8 µM in the assay with A549 cells, 8.64 ± 1.46 µM in the assay with H460 cells and 63.2 ± 4.5 µM on PRMT5.

A word on the IC50: it is the midpoint of a concentration-inhibition curve.
